The results in this text go back to patent publication US11857601B2, “Pharmaceutical composition for cancer treatment comprising fusion protein including IL-2 protein and CD80 protein and anticancer drug” (GI INNOVATION, INC., priority 2020, dated 2024).

Marks after values point to notes of the source that are not given here.

For one assay, the system named is EMT6 cells. The experiment in a line: mGI-101 and Paclitaxel in EMT6 allotransplanted tumor model. The class given is in vivo, BALB/c mice. The procedure:
EMT6 cells were purchased from ATCC (USA) and cultured in Waymouth MB 751/1 medium (WELGENE) containing 10% FBS (Gibco) and 1% antibiotic/antifungal agent (Gibco). The cultured cells were harvested using trypsin (Gibco), and then a high-concentration cell suspension (2×10^6 cells/0.4 mL) for 10 mice was prepare with PBS and stored on ice until injected into mice. In order to establish an allotransplanted tumor model, the skin was incised slightly away from the 4th nipple position from the upper right of the ventral region of BALB/c female mice (7-week-old), and the location of mammary fat pad at the incised site was identified, and then EMT6 cell line prepared inside the mammary fat pad was injected at 2×10^5 cells/40 uL/head.
A certain period of time after cell inoculation of the tumor grafts of the mice, the tumor volume was measured for animals with no abnormalities in the health condition of the animals, and the subjects were selected so that the average of each group reached less than 70-100 mm^3, and the selected animals were assigned as evenly as possible based on tumor volume and body weight, each group including 10 animals. As shown in Table 24 and FIG. 106, the test groups were configured and the test substances were administered.
(§1) Clinical symptoms such as a disease and a behavioral change were observed once a day during the test period, and deceased animals were identified, and the mice were sacrificed when the tumor size reached a size of 4,000 mm^3.
(§2) The tumor volume before administration of each subject was set as the value measured at the time of grouping, and the anti-tumor efficacy was evaluated as compared with the vehicle control.
(§3) All statistical calculations were performed using Prism 8.0 (Graph Pad Software Inc, USA). The comparison of tumor volume measurements was made through two-way analysis of variance followed by Tukey's multiple comparison test. A p value of less than 0.05 was considered significant.

Assay [1] relates to CT26 (mouse colon carcinoma) cells. The experiment in a line: mGI-101 and Galunisertib in CT26 allotransplanted tumor model. Format: in vivo, BALB/cAnHsd mice. The settings on record: mean ± SD, mGI-101 3 mg/kg IP, Galunisertib 75 mg/kg PO. The procedure: 6-week-old male BALB/cAnHsd mice were purchased and used for the test.
The tumor size was measured three times a week for 3 weeks from the day of start of administration of the test substance. The major axis and minor axis of the tumor were measured using a caliper, and the tumor size (tumor volume, TV) was calculated using the following equations. TV (mm^3)=(W^2×L)/2 [Equation 1]

For assay [2], the system named is CT26 cells. The experiment in a line: mGI-101 and Axitinib in CT26 allotransplanted tumor model.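 Further: subcutaneous CT26 syngeneic tumors in male BALB/c mice, dosing started once tumors were near 50 mm^3, drugs given orally or intraperitoneally for up to 3 weeks.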 Particulars: mGI-101 3 mg/kg IP, Axitinib 30 mg/kg PO.
Protocol: (§5) Mouse-derived colorectal cancer cells, CT26 (Mus musculus, Colon adenocarcinoma), and mouse-derived lung cancer cells, LL/2 (Mus musculus, Lung adenocarcinoma), were purchased from ATCC (USA) and used for the test. The cells to be used for the test were thawed, mixed with RPMI1640 (A1049101, Thermofisher scientific) medium containing 10% FBS (fetal bovine serum, Gibco, 10082-147), and then placed in a cell culture flask, and cultured in a 37° C., 5% CO2 incubator. The cells were washed with PBS, and then the cells were isolated using Trypsin-EDTA (15090, Gibco), and centrifugation (125×g, 5 minutes) was performed to discard the supernatant, and then the cells were suspended in a new medium to obtain the cell suspension. The viability of the cells was identified, and then a cell line was prepared by diluting in a medium to a concentration of 5.0×10^6 cells/mL.
(§6) 6-week-old male BALB/cAnHsd mice or C57BL/6NHsd mice were purchased and used for the test. After the end of the acclimation period of 7 days, the cells were transplanted into healthy animals. The cell suspension (5×10^6 cells/mL) was dispensed, and filled into a disposable syringe, and transplantation of the suspension was performed by subcutaneous administration at 0.1 mL/head in the right dorsal region of the animals. General symptoms were observed once a day during the engraftment and growth period after cell line transplantation.
(§7) After the inoculation of the cell line was performed, when the tumor size at the site to which the cell line was transplanted reached about 50 mm^3, the tumor size of each group was distributed as uniformly as possible according to the ranked tumor size.
(§8) The test substance was administered orally or intraperitoneally, and administered for 3 weeks depending on the composition of the test group. In the case of oral administration, the animals were fixed with the cervical spine skin fixation method, and administered directly into the stomach using a sonde for oral administration. In the case of intraperitoneal administration, the animals were fixed with the cervical spine skin fixation method, and administered intraperitoneally using a syringe equipped with a 26 gauge needle. The administration rate was not to exceed 200 μl/min.
Syngeneic model was prepared by subcutaneously transplanting the CT26 cell line into Balb/c mice, and then the test substance was administered to evaluate the anticancer effect.
The test system of another assay is LL/2 cell line. The experiment in a line: mGI-101 and Axitinib in LL/2 allotransplanted tumor model. The class given is in vivo, C57BL/6 mice. The settings on record: mGI-101 3 mg/kg IP, Axitinib 30 mg/kg PO.
The subject of a further assay is MDA-MB-231 cells. The experiment in a line: GI101 and Keytruda in humanized mice xenotransplanted with MDA-MB-231. The class given is in vivo, human. The method, then: Fetal bovine serum (FBS, 16000-044, Thermofisher scientific, USA), penicillin-streptomycin; 10,000 units/ml penicillin and 10,000 μg/ml streptomycin (15140122, Thermofisher scientific, USA); and RPMI1640 (A1049101, Thermofisher scientific, USA) per 100 ml were mixed and used.
The cells were suspended using Trypsin-EDTA (Cat. 25200-072, Thermofisher scientific, USA). The suspended cells were collected by centrifugation (125×g, 5 minutes) using a centrifuge, transferred to a new medium and a new flask, and passage cultured. The cultured cells were put to a centrifugation tube on the day of cell line transplantation and then collected. […] 8-week-old female NSGb2m (NOD.Cg-B2m^tm1UncPrkdc^scidIl2rg^tm1Wjl/SzJ) mice were purchased from Joongang Bio (Korea) and used for the test. The body weight was measured the next day after the end of the quarantine and acclimation period, and then the human-derived PBMC cell suspension (5×10^6 cells/0.2 ml) prepared for healthy animals was filled into a disposable syringe and administered to the caudal vein of the animals. General symptoms were observed once a day after cell transplantation.
A certain period of time after the cell transplantation, the tumor volume was measured for animals with no abnormalities in the health condition of the animals, and 32 subjects were selected so that the average of each group reached 40 to 80 mm^3. The selected animals were grouped into a total of 4 groups as evenly as possible based on tumor volume and body weight, each group including 8 animals.
General symptoms such as appearance, behavior, and excrement were observed once a day during the observation period, and deceased animals were identified. Body weight was measured on the day of cell line transplantation, twice a week, and on the day of animal sacrifice. The major axis (maximum length, L) and minor axis (perpendicular width, W) of the tumor were measured using a caliper (Digital caliper, mitutoyo, Japan) three times a week during the observation period, and the tumor volume (TV) was calculated by substituting them into the following equations.
(§4) The tumor volume before administration of each subject was set as the value measured at the time of grouping.

In a further assay the test system is Renca cells. The experiment in a line: mGI-101 and Lenvatinib in Renca allotransplanted tumor model. Format: in vivo, BALB/c mice. Particulars: mGI-101 twice a week (BIW), Lenvatinib daily, 10 mice per group. The procedure:
Renca cells were purchased from ATCC (USA) and cultured in RPMI1640 medium (Gibco) containing 10% FBS (Gibco) and 1% antibiotic/antifungal agent (Gibco). The cultured cells were harvested using trypsin (Gibco) and then suspended in PBS. In order to establish an allotransplanted tumor model, 5×10^6 Renca cells were subcutaneously injected into the back of BALB/c female mice (8-week-old).
A certain period of time after cell inoculation of the tumor grafts of the mice, the tumor volume was measured for animals with no abnormalities in the health condition of the animals, and the mice were randomly selected and assigned, each group including 10 mice.
The death of the mouse, the type of general symptoms, the date of onset, and the severity of symptoms were observed once a day during the test period, and recorded for each subject.
as §2, §3

Assay [3] has as its system CT26 cells. Put plainly: mGI-101 and Lenvatinib in CT26 allotransplanted tumor model. The class given is in vivo, BALB/c mice. The procedure:
CT26 cells were purchased from ATCC (USA) and cultured in RPMI1640 medium (Gibco) containing 10% FBS (Gibco) and 1% antibiotic/antifungal agent (Gibco). The cultured cells were harvested using trypsin (Gibco) and then suspended in PBS. In order to establish an allotransplanted tumor model, 1×10^6 CT26 cells were subcutaneously injected into the right flank of BALB/c female mice (7-week-old).
A certain period of time after the cell transplantation, the tumor volume was measured for animals with no abnormalities in the health condition of the animals, and the mice were assigned so that the average tumor volume of each group was less than 70-100 mm^3, each group including 10 mice.
In the case of Lenvatinib powder, the dose was calculated and weighed, and it was prepared to the dose concentration using a 0.5% methyl cellulose excipient. In order to minimize the loss of the test substance, the doses for 3 or 4 days were weighed, and prepared using the excipient on the day of administration and injected.
as §1, §4, §3

Assay [4] has as its system CD8+ T cells and CD4+/FoxP3+ Treg cells. The experiment in a line: Proliferation of CD8+ T cells and Treg cells in PBMCs (Exp. Ex. 10). Format: cell-based, human. The method, then: Human PBMCs were purchased from Allcells (Lot #3014928, USA). […] CellTrace CFSE dye was used, which was reacted with the human PBMCs under a light-blocking condition at […] for 20 minutes. The cells were labeled with CFSE by being reacted with 1 μM CellTrace CFSE dye at 37° C. for 20 minutes. CFSE not bound to the cells was removed by being reacted for 5 minutes with a culture medium having a 5-fold volume of the staining reaction solution and then by being centrifuged at 1,300 rpm for 5 minutes. The CFSE-labeled PBMCs were resuspended in the culture medium (RPMI1640 medium containing 10% fetal bovine serum, 10 mM HEPES, 100 U/ml penicillin/streptomycin, 1 mM sodium pyruvate, 55 μM 2-mercaptoethanol, 1 mM non-essential amino acid, and 2 mM L-glutamine), and then added to a 96-well microplate at 1×10^5 cells per well.
The incubated cells were examined for their degree of proliferation by measuring, with FACS analysis using anti-human CD4-PE antibody (BioLegend, USA), anti-human CD8-PE/Cy7 antibody (BioLegend, USA), and anti-human FoxP3-APC antibody (BioLegend, USA), a proportion of CD8+ T cells that had not been labeled with CFSE.

The mark [5] stands for this setting: day 42 vs day 21 after tumor transplantation, 8 animals per group.
[6] abbreviates: end of the experiment, 10 mice per group.

Protocol for LL/2 cell line: as §5, §6, §7, §8
Syngeneic model was prepared by subcutaneously transplanting the LL/2 cell line into C57BL/6 mice, and then the test substance was administered to evaluate the anticancer effect.

In the case of `CC(=O)O[C@H]1C(=O)[C@@]2(C)[C@H]([C@H](OC(=O)c3ccccc3)[C@]3(O)C[C@H](OC(=O)[C@H](O)[C@@H](NC(=O)c4ccccc4)c4ccccc4)C(C)=C1C3(C)C)[C@]1(OC(C)=O)CO[C@@H]1C[C@@H]2O` [Paclitaxel, reference compound], in the assay with EMT6 cells (EMT6, 10 animals per group), the “number of mice with tumor growth inhibition rate of 30% or more” value worked out at 7 mice, the “number of mice with tumor growth inhibition rate of 50% or more” value worked out at 4 mice and the “number of mice with tumor growth inhibition rate of 80% or more” value worked out at 2 mice. In the assay on EMT6 cells (day 13, mGI-101 3 mg/kg i.v. QW, Paclitaxel 10 mg/kg i.p. 7 consecutive days), the “tumor size vs control” value is “statistically significantly lower”.
For `Cc1cccc(-c2nn3c(c2-c2ccnc4ccc(C(N)=O)cc24)CCC3)n1` [Galunisertib, reference compound], the Tumor size in assay [1] (Day 0) worked out at 61.98 ± 12.23 mm^3; in assay [1] (Day 2) it was 187.20 ± 55.14 mm^3; in assay [1] (Day 4), 260.69 ± 78.70 mm^3; in assay [1] (Day 7), 398.78 ± 146.30 mm^3. In addition, the values for the Tumor growth inhibition in assay [1] (Day 2), in assay [1] (Day 4) and in assay [1] (Day 7) were 15.60 ± 38.26%, 34.09 ± 27.14% and 21.12 ± 34.98%, respectively.
As for `CNC(=O)c1ccccc1Sc1ccc2c(/C=C/c3ccccn3)n[nH]c2c1` [Axitinib, reference compound], the Tumor size is reported as 61.67 ± 12.58 mm^3 in the assay with CT26 cells [2] (Day 0, mean ± SD); 261.76 ± 61.86 mm^3 in the assay on CT26 cells [2] (Day 5, mean ± SD); 354.05 ± 104.90 mm^3 with CT26 cells [2] (Day 7, mean ± SD); 442.98 ± 148.70 mm^3 in the assay on CT26 cells [2] (Day 9, mean ± SD); 529.85 ± 206.76 mm^3 with CT26 cells [2] (Day 12, mean ± SD); 671.72 ± 303.14* mm^3 in the assay with CT26 cells [2] (Day 14, mean ± SD). In addition, the Tumor size in the assay with CT26 cells [2] (Day 16, mean ± SD) is on record as 970.72 ± 475.99** mm^3; in the assay with CT26 cells [2] (Day 19, mean ± SD), 1129.12 ± 639.16**** mm^3; in the assay with CT26 cells [2] (Day 21, mean ± SD), 1710.57 ± 1133.79**** mm^3; with LL/2 cell line (Day 0, mean ± SD) it was 55.77 ± 11.25 mm^3; in the assay with LL/2 cell line (Day 2, mean ± SD) it was 88.73 ± 21.26 mm^3; in the assay on LL/2 cell line (Day 5, mean ± SD) it was 179.31 ± 52.62 mm^3. The Tumor size with LL/2 cell line (Day 7, mean ± SD) was 362.30 ± 97.92 mm^3; in the assay with LL/2 cell line (Day 9, mean ± SD), 584.17 ± 172.94 mm^3; with LL/2 cell line (Day 12, mean ± SD), 892.90 ± 256.88 mm^3; with LL/2 cell line (Day 14, mean ± SD), 1292.27 ± 385.43 mm^3; in the assay on LL/2 cell line (Day 16, mean ± SD), 1775.26 ± 462.50 (9) mm^3; with LL/2 cell line (Day 19, mean ± SD), 2551.08 ± 695.31 (9) mm^3. Besides, the Tumor size with LL/2 cell line (Day 21, mean ± SD) is given as 4236.33 ± 1060.18 (9)**^,## mm^3.
With “Keytruda: Keytruda (Pembrolizumab, MSD), an anti-PD-1 antibody [reference compound]”, the tumor growth result with MDA-MB-231 cells (GI101 6 mg/kg, Keytruda 5 mg/kg, 4 administrations, compared with the control (hIgG4)) was “tumor growth inhibition”. In the assay with MDA-MB-231 cells (setting [5]), the “number of mice with tumor growth inhibition rate of 30% or more” value is reported as 7 mice, the “number of mice with tumor growth inhibition rate of 50% or more” value was 5 mice and the “number of mice with tumor growth inhibition rate of 80% or more” value is 3 mice.
As to `COc1cc2nccc(Oc3ccc(NC(=O)NC4CC4)c(Cl)c3)c2cc1C(N)=O` [Lenvatinib], in the assay on Renca cells, the “number of mice with tumor growth inhibition rate of 30% or more” value stood at 4 mice, the “number of mice with tumor growth inhibition rate of 50% or more” value stood at 2 mice and the “number of mice with tumor growth inhibition rate of 80% or more” value is given as “no mouse”. Moreover, in the assay on CT26 cells [3] (setting [6]), the “number of mice with tumor growth inhibition rate of 30% or more” value amounted to 6 mice, the “number of mice with tumor growth inhibition rate of 50% or more” value was 4 mice and the “number of mice with tumor growth inhibition rate of 80% or more” value was 1 mice. Besides, in the assay with CT26 cells [3] (mGI-101 3 mg/kg i.v. QW, Lenvatinib 3 mg/kg p.o. daily, Lenvatinib day 18, 21, combination day 16, 18, 21), the “anticancer effect (tumor size) compared with the control” value is listed as “statistically significant anticancer effect”.
For the compound “Proleukin: Proleukin (Novartis, hIL-2); human recombinant IL-2 [reference compound]”, the “proportion of CD8+ T cells” value in assay [4] (anti-CD3ε 1 μg/ml, 7 days, compared with no stimulus, anti-CD3 antibody alone and GI101C1) is given as “significant increase”. Moreover, the “proliferation of CD4+/FoxP3+ Treg cells” value in assay [4] (compared with no stimulus and anti-CD3 antibody alone) is recorded as “significant increase”.
